Measured values reported in paper PMC6222718, “Ethylenediamine Derived Carboxamides of Betulinic and Ursolic Acid as Potential Cytotoxic Agents” (Molecules : A Journal of Synthetic Chemistry and Natural …, 2018).
Counter-ions that a name gives are not always drawn.

Legend:
518A2 (melanoma) = assay: SRB cytotoxicity assay, 518A2; format: cell-based, human; conditions: for EC50: Homo sapiens, SRB assay, 96 h of treatment, 518A2; for Selectivity index (SI) 518A2: SI = EC50 (NIH 3T3)/EC50 (518A2)
Experimental: (§1) The cytotoxicity of ursolic and betulinic carboxamides 3–30 was determined in sulforhodamine B (SRB) assays.
(§2) The cell lines used were human cancer cell lines: 518A2 (melanoma), A2780 (ovarian carcinoma), HT29 (colon adenocarcinoma), MCF-7 (breast adenocarcinoma), 8505C (thyroid carcinoma) and non-malignant mouse fibroblasts NIH 3T3. Cultures were maintained as monolayers in RPMI 1640 medium with L-glutamine (Capricorn Scientific GmbH, Ebsdorfergrund, Germany) supplemented with 10% heat inactivated fetal bovineserum (Sigma-Aldrich Chemie GmbH, Steinheim, Germany) and penicillin/streptomycin (Capricorn Scientific GmbH, Ebsdorfergrund, Germany) at 37 °C in a humidified atmosphere with 5% CO2.
(§3) The cytotoxicity of the compounds was evaluated using the sulforhodamine-B (Kiton-Red S, ABCR) micro culture colorimetric assay. Cells were seeded into 96-well plates on day 0 at appropriate cell densities to prevent confluence of the cells during the period of experiment. After 24 h, the cells were treated with 6 different concentrations (1, 3, 7, 12, 20 and 30 µM) minimum. The final concentration of DMSO/DMF never exceeded 0.5%, which was non-toxic to the cells. After a 96 h treatment, the supernatant medium from the 96-well plates was discarded, the cells were fixed with 10% trichloroacetic acid (TCA) and allowed to rest at 4 °C. After 24 h fixation, the cells were washed in a strip washer and dyed with SRB solution (100 µL, 0.4% in 1% acetic acid) for about 20 min. After dying, the plates were washed four times with 1% acetic acid to remove the excess of the dye and allowed to air-dry overnight. Tris base solution (200 µL, 10 mM) was added to each well and absorbance was measured at λ = 570 nm using a 96-well plate reader (Tecan Spectra, Crailsheim, Germany). The EC50 values were averaged from three independent experiments performed each in triplicate calculated from semi logarithmic dose response curves applying a non-linear 4P Hills-slope equation (GraphPad Prism5; variables top and bottom were set to 100 and 0, respectively).

[1] = test system: A2780 (ovarian carcinoma); assay: SRB cytotoxicity assay, A2780; format: cell-based, human; conditions: for EC50: Homo sapiens, SRB assay, 96 h of treatment, A2780; for Selectivity index (SI) A2780: SI = EC50 (NIH 3T3)/EC50 (A2780)
Experimental: as §1, §2, §3

[2] = test system: HT29 (colon adenocarcinoma); assay: SRB cytotoxicity assay, HT29; format: cell-based, human; conditions: for EC50: Homo sapiens, HT-29, SRB assay, 96 h of treatment, HT29; for Selectivity index (SI) HT29: SI = EC50 (NIH 3T3)/EC50 (HT29)
Experimental: as §1, §2, §3

[3] = test system: MCF-7 (breast adenocarcinoma); assay: SRB cytotoxicity assay, MCF-7; format: cell-based, human; conditions: for EC50: Homo sapiens, MCF7, SRB assay, 96 h of treatment, MCF-7; for Selectivity index (SI) MCF-7: SI = EC50 (NIH 3T3)/EC50 (MCF-7)
Experimental: as §1, §2, §3

[4] = test system: non-malignant mouse fibroblasts NIH 3T3; assay: SRB cytotoxicity assay, NIH 3T3; format: cell-based; conditions: NIH3T3, 96 h of treatment
Experimental: as §1, §2, §3

[5] = test system: 8505C (thyroid carcinoma); assay: SRB cytotoxicity assay, 8505C; format: cell-based, human; conditions: for EC50: Homo sapiens, SRB assay, 96 h of treatment, 8505C; for Selectivity index (SI) 8505C: SI = EC50 (NIH 3T3)/EC50 (8505C)
Experimental: as §1, §2, §3

Structure (SMILES)	EC50 (518A2 (melanoma)) [µM]	Selectivity index (SI) 518A2 (518A2 (melanoma))	EC50 [1] [µM]	Selectivity index (SI) A2780 [1]	EC50 [2] [µM]	Selectivity index (SI) HT29 [2]	EC50 [3] [µM]	Selectivity index (SI) MCF-7 [3]	EC50 [4] [µM]	EC50 [5] [µM]	Selectivity index (SI) 8505C [5]	melting point [°C]
C=C(C)[C@@H]1CC[C@]2(C(=O)O)CC[C@]3(C)[C@H](CC[C@@H]4[C@@]5(C)CC[C@H](O)C(C)(C)[C@@H]5CC[C@]43C)[C@@H]12 [BA, betulinic acid, reference compound]	9.4 ± 0.7	1.39	8.8 ± 0.9	1.49	14.4 ± 2.3	0.91	10.2 ± 1.2	1.28	13.1 ± 1.1	–	–	–
CC(=O)O[C@H]1CC[C@@]2(C)C(CC[C@]3(C)C2CC=C2C4[C@@H](C)[C@H](C)CC[C@]4(C(=O)NCCN)CC[C@]23C)C1(C)C (stereo partly drawn) [Compound 3, (3β)-N-(2-Aminoethyl)-3-acetyloxy-urs-12-en-28-amide]	2.7 ± 0.1	0.96	2.3 ± 0.1	1.13	1.8 ± 0.1	1.44	2 ± 0.1	1.30	2.6 ± 0.3	4.1 ± 0.4	0.63	202 to 205
CC(=O)O[C@H]1CC[C@@]2(C)C(CC[C@]3(C)C2CC=C2C4[C@@H](C)[C@H](C)CC[C@]4(C(=O)NCCN(C)C)CC[C@]23C)C1(C)C (stereo partly drawn) [Compound 4, (3β)-N-[2-(Dimethylamino)ethyl]-3-acetyloxy-urs-12-en-28-amide]	5.3 ± 0.4	0.70	3.6 ± 0.4	1.03	3.4 ± 0.3	1.09	3.3 ± 0.7	1.12	3.7 ± 0.2	8.3 ± 0.7	0.45	121 to 124
CC(=O)O[C@H]1CC[C@@]2(C)C(CC[C@]3(C)C2CC=C2C4[C@@H](C)[C@H](C)CC[C@]4(C(=O)NCCN4CCCC4)CC[C@]23C)C1(C)C (stereo partly drawn) [Compound 5, (3β)-N-(2-Pyrrolidin-1-ylethyl)-3-acetyloxy-urs-12-en-28-amide]	4.5 ± 0.2	0.73	3.1 ± 0.2	1.06	2.1 ± 0.2	1.57	2.9 ± 0.7	1.14	3.3 ± 0.3	4.3 ± 0.2	0.77	156 to 159
CC(=O)O[C@H]1CC[C@@]2(C)C(CC[C@]3(C)C2CC=C2C4[C@@H](C)[C@H](C)CC[C@]4(C(=O)NCCN4CCCCC4)CC[C@]23C)C1(C)C (stereo partly drawn) [Compound 6, (3β)-N-(2-Piperidin-1-ylethyl)-3-acetyloxy-urs-12-en-28-amide]	12.2 ± 0.3	0.59	6.5 ± 0.5	1.11	4.2 ± 0.5	1.71	6 ± 0.9	1.20	7.2 ± 1.2	15.5 ± 2.7	0.46	124 to 127
C=C(C)C1CC[C@]2(C(=O)NCCN)CC[C@]3(C)C(CCC4[C@@]5(C)CC[C@H](OC(C)=O)C(C)(C)C5CC[C@]43C)C12 (stereo partly drawn) [Compound 17, (3β)-N-(2-Aminoethyl)-3-acetyloxy-lup-20(29)-en-28-amide]	1.6 ± 0.1	0.88	1.4 ± 0.2	1.00	1 ± 0.3	1.40	1.3 ± 0.06	1.08	1.4 ± 0.1	2.5 ± 0.03	0.56	–
C=C(C)C1CC[C@]2(C(=O)NCCN)CC[C@]3(C)C(CCC4[C@@]5(C)CC[C@H](O)C(C)(C)C5CC[C@]43C)C12 (stereo partly drawn) [Compound 24, (3β)-N-(2-Aminoethyl)-3-hydroxy-lup-20(29)-en-28-amide]	0.4 ± 0.01	1.00	0.4 ± 0.03	1.00	0.4 ± 0.02	1.00	0.4 ± 0.02	1.00	0.4 ± 0.02	0.4 ± 0.07	1.00	–
C=C(C)C1CC[C@]2(C(=O)NCCN3CCCCC3)CC[C@]3(C)C(CCC4[C@@]5(C)CC[C@H](O)C(C)(C)C5CC[C@]43C)C12 (stereo partly drawn) [Compound 27, (3β)-N-(2-Piperidin-1-ylethyl)-3-hydroxy-lup-20(29)-en-28-amide]	0.5 ± 0.1	0.80	0.4 ± 0.1	1.00	0.4 ± 0.03	1.00	0.4 ± 0.01	1.00	0.4 ± 0.01	0.8 ± 0.09	0.50	–
COc1cccc2c1C(=O)c1c(O)c3c(c(O)c1C2=O)C[C@@](O)(C(=O)CO)C[C@@H]3O[C@H]1C[C@H](N)[C@H](O)[C@H](C)O1 [DRC, doxorubicin hydrochloride, reference compound]	0.2 ± 0.05	0.30	0.01 ± 0.01	6.00	0.9 ± 0.2	0.07	1.1 ± 0.3	0.05	0.06 ± 0.03	1.1 ± 0.4	0.05	–
C[C@H]1[C@H](C)CC[C@]2(C(=O)O)CC[C@]3(C)C(=CC[C@@H]4[C@@]5(C)CC[C@H](O)C(C)(C)[C@@H]5CC[C@]43C)[C@H]12 [UA, ursolic acid]	14.7 ± 0.1	1.27	11.7 ± 0.6	1.59	10.6 ± 0.7	1.76	12.7 ± 0.1	1.47	18.7 ± 1.6	13.5 ± 1.5	1.39	–
